Source: patent US12410407B2, “Choroid plexus organoids and methods for production thereof” (UNITED KINGDOM RESEARCH AND INNOVATION, priority 2019, dated 2025)
Read-outs that look alike come from different tables or passages of the source. Marks after values point to notes of the source that are not given here.

Tests used:
[1] = six trial participants, one of whom died; cited from earlier work
ChP epithelial barrier [2] = assay: ChP organoid small-molecule permeability, NMR analysis of media and iCSF; details: for Presence in iCSF by NMR: after 2h incubation, 500 μM, L-Dopa in the presence of Carbidopa
Protocol: On day 5 media was replaced with NI media in the same 96-well. After two days EBs were embedded in 20 μl matrigel using sheets of dimpled parafilm and incubated for 20 min at 37° C. as previously described (2). EBs were then transferred to a 6-well plate with 3 ml of Expansion media per well. For ChP patterning, on day 10 treatment with 3 μM CHIR and 20 ng/ml BMP4 in Maturation media was used keeping a maximum number of 6 EBs in each 5 cm dish. The treatment was kept for 7 days in maturation media. On day 15 organoids were moved to an incubator with a shaker and were fed every 3-4 days with maturation media. From day 30 dissolved matrigel (1:50) was added to the maturation media.
For NMR experiments, ChP organoids were incubated in complete IDM+A media without phenol red and 1:50 Geltrex (Gibco, A14132-02) for 2 h, 12h, 24 h, 48h or 72h. Organoid media and iCSF were collected and centrifuged at 500 g for 5 min to remove debris. ^1H-NMR spectra were acquired using a Bruker Ultrashield 400 Plus operating at 400.1 MHz. Samples consisting of H2O/D2O mixtures were analyzed using HOD suppression to collect ^1H-NMR data. Chemical shifts (6) are shown in ppm. The yields of conversion were determined by relative integration of the signals in the ^1H-NMR spectra. Data analysis was performed using MestReNova (version 7.0) and GraphPad Prism (version 7.0b).
Because the NMR measurements of in vitro fluids detected unbound drug, the ratio (Km,uu,iCSF) was a simple function of the ratio of drug in in vitro CSF (Cu,iCSF) to drug in media (Cu,m) (eq E).
Thus, in order to test for such selective permeability to small molecules, we applied various therapeutically relevant small molecules and assayed their permeability by NMR analysis of organoid iCSF. […] We incubated the organoids with Dopa and with L-Dopa in the presence of Carbidopa, a small molecule that prevents the conversion of L-Dopa into Dopa (34, 35).

ChP epithelial barrier [3] = system: ChP epithelial barrier; design: Km, uu, iCSF: unit not given beside the values
[4] = in vivo, from literature, cited from earlier work
[5] = In vivo drug levels in CSF and blood plasma, and unbound CSF to plasma ratio (literature data); design: species or system humans; details: human, calculated from literature values (Qalb 0.005)
Protocol: For comparison between in vitro and in vivo levels of small molecules in CSF, in vivo unbound CSF to blood plasma ratio, Kp,uu,CSF, was calculated as the ratio of the unbound drug in CSF (Cu,CSF) to that in blood plasma (Cu,p) similar to previously described (7) (eq A). The amount of unbound drug in each of CSF and plasma is the product of the total drug concentration (Cp) or (CCSF) and the fraction of drug that is unbound (fu,p) or (fu,CSF)(eqs B and C). Cp, CCSF, and fu,p were taken from literature (Table S2). However, because of the difficulty in obtaining large amounts of CSF, for most drugs fu,CSF is not known.

[6] = cited from earlier work
[7] = in vivo data from mouse
Text: Pre-clinical or clinical data of this molecule in humans are not yet available, but Phase I clinical trials are under way so any additional human in vitro data would be informative.

[8] = cited from earlier work; remark: listed apart in the source
protein misfolding = details: mouse model of Charcot-Marie Tooth-1B; cited from earlier work
[9] = total drug concentration in blood plasma
[10] = total drug concentration in CSF
[11] = in vivo data from mouse, estimate from graph in reference
[12] = unbound concentrations reported, average of two measurements

CN(C(=O)n1cnc(-c2ccc[n+]([O-])c2)c1)C1CCCCC1 [BIA-10-2474]
Adverse effects in Phase I clinical trials [1]: severe neurotoxicity
Time course of the ratio in iCSF to media (ChP epithelial barrier [2]; 2 h, 12h, 24 h and 72h): continued to accumulate in the iCSF
Presence in iCSF by NMR (ChP epithelial barrier [2]): able to cross the ChP epithelial barrier

CC(NC(C)(C)C)C(=O)c1cccc(Cl)c1 (stereo not drawn) [Bupropion]
Km, uu, iCSF (ChP epithelial barrier [3]): 1.07
Cp [4, 9]: 0.0298 µg/mL

NCCc1ccc(O)c(O)c1 [Dopamine]
Kp uu [5]: 0.185
Km, uu, iCSF (ChP epithelial barrier [3]): 0.10
CCSF ([4]; Δ upon injection): 9.01 ng/mL
Cp ([4]; Δ upon injection): 0.0674 µg/mL
Entry into brain/CSF in vivo as established in the literature [6]: doesn't enter the brain in vivo

N[C@@H](Cc1ccc(O)c(O)c1)C(=O)O [L-DOPA, Levodopa]
iCSF/media ratio, L-Dopa compared to Dopa (ChP epithelial barrier [3]): consistently higher
CCSF [4, 10]: ~150 ng/mL
Cp [4, 9]: ~0.4 µg/mL
Entry into brain/CSF in vivo as established in the literature [6]: actively transported in to the CSF via the LAT-1 transporter

CN(Cc1cnc2nc(N)nc(N)c2n1)c1ccc(C(=O)N[C@@H](CCC(=O)O)C(=O)O)cc1 [Methotrexate]
Kp uu [5]: 0.04
Km, uu, iCSF (ChP epithelial barrier [3]): 0.01
CCSF [4, 10]: 0.27 µM
Cp [4, 9]: 15.8 µM
Entry into brain/CSF in vivo as established in the literature [6]: poorly cross the BBB

NC(N)=N/N=C/c1ccccc1Cl [Sephin 1]
Kp, uu, CSF (total compound brain to plasma ratio) [7]: 10^#
CCSF [8, 11]: ~110 ng/g
Cp [8, 11]: ~0.011 µg/mL
BBB crossing in mouse ([8]; mouse): cross the BBB
CNS effect against protein misfolding (protein misfolding): protective CNS role against protein misfolding
Permeability in the human organoid model compared with the mouse model (ChP epithelial barrier [2]; 2h incubation, compared with published mouse data): much lower
Presence in iCSF by NMR (ChP epithelial barrier [2]): detectable

CC[C@]1(O)C[C@H]2CN(CCc3c([nH]c4ccccc34)[C@@](C(=O)OC)(c3cc4c(cc3OC)N(C=O)[C@H]3[C@@](O)(C(=O)OC)[C@H](OC(C)=O)[C@]5(CC)C=CCN6CC[C@]43[C@@H]65)C2)C1 [Vincristine]
Kp uu [5]: 0.042
CCSF [4, 12]: 0.000855 µM
Cp [4, 12]: 0.0205 µM
Entry into brain/CSF in vivo as established in the literature [6]: poorly cross the BBB
